The source of these data is publication PMC12423301, “Astrocytic monoamine oxidase B (MAOB)–gamma-aminobutyric acid (GABA) axis as a molecular brake on repair following spinal cord injury” (Signal Transduction and Targeted Therapy, 2025).

For orientation: IC50 means the midpoint of a concentration-inhibition curve. Lower therefore signals higher potency.

Data set [1] deals with rat SCI model. Nature of the data set: Western blot and GABA ELISA of rat spinal cord tissue. In kind it is in vivo. To be noted: PI 10w. On the procedure: Approximately 24 h after drug treatment, primary mouse spinal cord astrocytes or spinal cord tissues were lysed in RIPA buffer (MB030-0050, ROCKLAND) containing protease and phosphatase inhibitors (1861280, Thermo Fisher Scientific). The protein concentration was measured using the Pierce™ BCA Protein Assay Kit (Thermo Fisher Scientific). Each sample was then used separately for Western blot or GABA ELISA analysis. Western blot analysis was performed following established protocols,[73],[74] with 20 μg of spinal cord tissue or 10 μg of astrocyte protein samples were loaded onto SDS-PAGE gels, transferred to PVDF membranes, and blocked with 5% non-fat milk. The membranes were incubated overnight at 4 °C with primary antibodies, including rabbit anti-MAOB (1:1000, Abcam), rabbit anti-BDNF (1:1000, Abcam), mouse anti-TrkB (1:1000, R&D Systems), and rabbit anti-β-actin (1:1000, Cell Signaling Technology). […] The bands were visualized using enhanced chemiluminescence, and band intensity was quantified using ImageJ software. For enzyme-linked immunosorbent assay (ELISA), GABA quantification was performed using an ELISA kit (BA-E-2500, ImmuSmol) according to the manufacturer’s instructions, utilizing 20 μg of protein extracted from spinal cord tissues.
For orientation: Immunoblotting shows a protein as a band on a membrane.

A short description of data set [2]: Safety pharmacology test. To be noted: in vivo. On the procedure: (§1) Protocol No. NB_KDS_ADP1_21 Confidential administration of the test substance to rats at a dose of 50-200 mg/kg daily for 2 weeks, there were no deaths.
(§2) As a result of oral administration to rats at doses of 30, 50, 75 and 100 mg/kg once daily for 4 weeks, […]
(§3) testis, epididymis and lungs. Renal epithelial hyperplasia and inflammatory cells infiltration in the renal pelvis observed in the male and female dose groups of 75 mg/kg or more, germ cell degeneration/loss and seminiferous tubules atrophy observed in the male dose groups of 75 mg/kg or more, and vacuole/degeneration of outer medullary tubules and basophilic tubules observed in the female dose groups were judged to be adverse effects due to administration of the test substance. […] Accordingly, in repeated administrations of rats for 4 weeks, the NOAEL(No Observed Adverse Effect Level) was determined to be 50 mg/kg/day for males and 30 mg/kg for females. […]
(§4) In a pharmacokinetic study, plasma PK parameters were measured after a single oral administration of […]
(§5) a result of measuring excretion into urine, feces, expiration, and bile, 6.9% was excreted in urine and 48.5% in feces, respectively, up to 168 hours after administration. Excretion to air through respiration was about 0.0% until 48 hours after administration, and 44.1% of the administered radioactivity concentration was present in the body (carcass). […]

The target of data set [3] is hERG (Homo sapiens, UniProt Q12809). Nature of the data set: hERG assay. In kind it is biochemical. On the procedure:
as §1, §2, §3, §4, §5
For orientation: hERG is a cardiac potassium channel; its block is linked to QT prolongation.

Data set [4] can be described thus: 14C radiolabeled KDS2010 disposition and excretion in rats. It is filed as in vivo, SD rats. The protocol: Protocol No. NB_KDS_ADP1_21 Confidential
In a pharmacokinetic study, plasma PK parameters were measured after a single oral administration of
5.2. Rationale for Selection of Dose and Duration of Dosing
According to the FDA guideline (Estimating the Maximum Safe Starting Dose in Initial Clinical Trials for […]

Details of data set [5]: method as in PMID 30906861. To be noted: cited from earlier work.
Where [6] appears, read: BDC rats, until 48 hours after oral administration.
[7] abbreviates: up to 168 hours after administration.

hERG, sequence (Q12809 whole entry): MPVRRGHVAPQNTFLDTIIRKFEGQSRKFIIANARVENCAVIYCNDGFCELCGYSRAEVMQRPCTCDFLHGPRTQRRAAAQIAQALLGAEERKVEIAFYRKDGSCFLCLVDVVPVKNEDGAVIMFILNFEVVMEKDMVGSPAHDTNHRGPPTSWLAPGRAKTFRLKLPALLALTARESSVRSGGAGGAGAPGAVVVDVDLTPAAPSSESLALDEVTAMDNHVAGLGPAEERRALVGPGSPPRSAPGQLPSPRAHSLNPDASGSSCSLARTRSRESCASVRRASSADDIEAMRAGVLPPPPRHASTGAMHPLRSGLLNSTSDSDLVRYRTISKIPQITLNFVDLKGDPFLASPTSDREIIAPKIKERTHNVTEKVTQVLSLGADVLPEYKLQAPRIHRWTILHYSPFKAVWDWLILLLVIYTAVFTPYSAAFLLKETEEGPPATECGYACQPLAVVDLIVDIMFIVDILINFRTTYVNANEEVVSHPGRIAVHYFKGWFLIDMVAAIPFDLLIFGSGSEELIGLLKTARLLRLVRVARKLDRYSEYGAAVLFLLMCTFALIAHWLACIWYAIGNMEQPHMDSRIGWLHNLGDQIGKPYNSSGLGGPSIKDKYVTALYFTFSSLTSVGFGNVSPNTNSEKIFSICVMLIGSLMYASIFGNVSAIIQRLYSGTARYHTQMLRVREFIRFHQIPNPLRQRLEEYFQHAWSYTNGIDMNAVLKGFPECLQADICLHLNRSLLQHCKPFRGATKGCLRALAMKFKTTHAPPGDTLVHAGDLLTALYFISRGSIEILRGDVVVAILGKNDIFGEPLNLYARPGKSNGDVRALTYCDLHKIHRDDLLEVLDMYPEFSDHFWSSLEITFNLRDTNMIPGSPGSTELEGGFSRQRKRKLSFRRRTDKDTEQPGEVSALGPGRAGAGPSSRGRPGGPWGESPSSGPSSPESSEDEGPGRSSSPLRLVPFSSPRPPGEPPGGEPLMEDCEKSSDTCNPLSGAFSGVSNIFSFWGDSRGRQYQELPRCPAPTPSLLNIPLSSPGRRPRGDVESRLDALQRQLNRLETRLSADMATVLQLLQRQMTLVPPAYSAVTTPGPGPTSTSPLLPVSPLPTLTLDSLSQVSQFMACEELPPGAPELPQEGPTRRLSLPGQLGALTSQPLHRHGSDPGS

As to `CS(=O)(=O)O.C[C@H](NCc1ccc(-c2ccc(C(F)(F)F)cc2)cc1)C(N)=O` [KDS2010, (S)-2-(((4’-Trifluoromethylbiphenyl-4-yl)methyl)amino)propanamide methane-sulfonate], the “GABA levels (ELISA)” value in data set [1] (SCI + KDS 1 d/Re) is given as “significant reduction”. In addition, the “MAOB protein level (Western blotting)” value in data set [1] (SCI+KDS 1d/Re vs SCI+V) is listed as “significantly reduced”. Moreover, the “effects on central nervous system, respiratory system, and cardiovascular system” value in data set [2] is reported as “no effect”. Besides, the 50% inhibitory concentration (IC50) in data set [3] was found to be 7.8 ± 1.7 µM. The “administered radioactivity present in the body (carcass)” value in data set [4] (14C radiolabeled, oral 10 mg/kg) stood at 44.1%. In data set [4] (BDC (bile duct-cannulated) rats, until 48 hours after oral administration), this molecule yielded an excreted in bile of 71.5%. The values for the excreted in feces in data set [4] (setting [6]) and in data set [4] (setting [7]) were 6.0% and 48.5%, respectively. For the same molecule, the excreted in urine was determined as 6.8% in data set [4] (setting [6]) and 6.9% in data set [4] (setting [7]). In addition, in data set [4] (until 48 hours after administration), the “excretion to air through respiration” value is listed as “about 0.0%”. Also, the “permeability across the blood‒brain barrier” value in data set [5] is “highly permeable”.
